# Test results published in BigSolDB 2.1.
smiles,measurement,setting,value
O=[N+]([O-])c1cc(F)c(F)cc1[N+](=O)[O-],solubility (mole fraction),"in 1,2-dichloroethane, 293.15 K",0.000981
same,solubility (mole fraction),"in 1,2-dichloroethane, 298.15 K",0.00112
same,solubility (mole fraction),"in 1,2-dichloroethane, 303.15 K",0.00128
same,solubility (mole fraction),"in 1,2-dichloroethane, 308.15 K",0.00171
same,solubility (mole fraction),"in 1,2-dichloroethane, 313.15 K",0.00229
same,solubility (mole fraction),"in 1,2-dichloroethane, 318.15 K",0.00314
same,solubility (mole fraction),"in 1,2-dichloroethane, 323.15 K",0.00416
same,solubility (mole fraction),"in 1,2-dichloroethane, 328.15 K",0.00553
same,solubility (mole fraction),"in 1,2-dichloroethane, 333.15 K",0.00752
same,solubility (mole fraction),"in benzene, 293.15 K",0.00143
same,solubility (mole fraction),"in benzene, 298.15 K",0.00152
same,solubility (mole fraction),"in benzene, 303.15 K",0.00173
same,solubility (mole fraction),"in benzene, 308.15 K",0.00216
same,solubility (mole fraction),"in benzene, 313.15 K",0.00286
same,solubility (mole fraction),"in benzene, 318.15 K",0.00384
same,solubility (mole fraction),"in benzene, 323.15 K",0.00499
same,solubility (mole fraction),"in benzene, 328.15 K",0.00647
same,solubility (mole fraction),"in benzene, 333.15 K",0.0086
same,solubility (mole fraction),"in chloroform, 293.15 K",0.000875
same,solubility (mole fraction),"in chloroform, 298.15 K",0.000957
same,solubility (mole fraction),"in chloroform, 303.15 K",0.00111
same,solubility (mole fraction),"in chloroform, 308.15 K",0.00156
same,solubility (mole fraction),"in chloroform, 313.15 K",0.00237
same,solubility (mole fraction),"in chloroform, 318.15 K",0.00339
same,solubility (mole fraction),"in chloroform, 323.15 K",0.00456
same,solubility (mole fraction),"in chloroform, 328.15 K",0.00611
same,solubility (mole fraction),"in ethanol, 293.15 K",0.00011
same,solubility (mole fraction),"in ethanol, 298.15 K",0.00014
same,solubility (mole fraction),"in ethanol, 303.15 K",0.000166
same,solubility (mole fraction),"in ethanol, 308.15 K",0.000246
same,solubility (mole fraction),"in ethanol, 313.15 K",0.000339
same,solubility (mole fraction),"in ethanol, 318.15 K",0.00047
same,solubility (mole fraction),"in ethanol, 323.15 K",0.000662
same,solubility (mole fraction),"in ethanol, 328.15 K",0.000906
same,solubility (mole fraction),"in ethanol, 333.15 K",0.00121
same,solubility (mole fraction),"in ethyl acetate, 293.15 K",0.0019
same,solubility (mole fraction),"in ethyl acetate, 298.15 K",0.00215
same,solubility (mole fraction),"in ethyl acetate, 303.15 K",0.00241
same,solubility (mole fraction),"in ethyl acetate, 308.15 K",0.0028
same,solubility (mole fraction),"in ethyl acetate, 313.15 K",0.00342
same,solubility (mole fraction),"in ethyl acetate, 318.15 K",0.00433
same,solubility (mole fraction),"in ethyl acetate, 323.15 K",0.00554
same,solubility (mole fraction),"in ethyl acetate, 328.15 K",0.00735
same,solubility (mole fraction),"in ethyl acetate, 333.15 K",0.00951
same,solubility (mole fraction),"in ethyl formate, 293.15 K",0.00271
same,solubility (mole fraction),"in ethyl formate, 298.15 K",0.00284
same,solubility (mole fraction),"in ethyl formate, 303.15 K",0.00303
same,solubility (mole fraction),"in ethyl formate, 308.15 K",0.00339
same,solubility (mole fraction),"in ethyl formate, 313.15 K",0.00402
same,solubility (mole fraction),"in ethyl formate, 318.15 K",0.00493
same,solubility (mole fraction),"in ethyl formate, 323.15 K",0.00613
same,solubility (mole fraction),"in ethyl formate, 328.15 K",0.00775
same,solubility (mole fraction),"in ethyl formate, 333.15 K",0.01
same,solubility (mole fraction),"in isopropanol, 293.15 K",3.1e-05
same,solubility (mole fraction),"in isopropanol, 298.15 K",5e-05
same,solubility (mole fraction),"in isopropanol, 303.15 K",6.4e-05
same,solubility (mole fraction),"in isopropanol, 308.15 K",8.9e-05
same,solubility (mole fraction),"in isopropanol, 313.15 K",0.000123
same,solubility (mole fraction),"in isopropanol, 318.15 K",0.000164
same,solubility (mole fraction),"in isopropanol, 323.15 K",0.000215
same,solubility (mole fraction),"in isopropanol, 328.15 K",0.000296
same,solubility (mole fraction),"in isopropanol, 333.15 K",0.00038
same,solubility (mole fraction),"in m-xylene, 293.15 K",0.00176
same,solubility (mole fraction),"in m-xylene, 298.15 K",0.00206
same,solubility (mole fraction),"in m-xylene, 303.15 K",0.00248
same,solubility (mole fraction),"in m-xylene, 308.15 K",0.00303
same,solubility (mole fraction),"in m-xylene, 313.15 K",0.00368
same,solubility (mole fraction),"in m-xylene, 318.15 K",0.00444
same,solubility (mole fraction),"in m-xylene, 323.15 K",0.00531
same,solubility (mole fraction),"in m-xylene, 328.15 K",0.0062
same,solubility (mole fraction),"in m-xylene, 333.15 K",0.00722
same,solubility (mole fraction),"in mesitylene, 293.15 K",0.00238
same,solubility (mole fraction),"in mesitylene, 298.15 K",0.00259
same,solubility (mole fraction),"in mesitylene, 303.15 K",0.00279
same,solubility (mole fraction),"in mesitylene, 308.15 K",0.00309
same,solubility (mole fraction),"in mesitylene, 313.15 K",0.00348
same,solubility (mole fraction),"in mesitylene, 318.15 K",0.00397
same,solubility (mole fraction),"in mesitylene, 323.15 K",0.00459
same,solubility (mole fraction),"in mesitylene, 328.15 K",0.0055
same,solubility (mole fraction),"in mesitylene, 333.15 K",0.00652
same,solubility (mole fraction),"in methanol, 293.15 K",0.00019
same,solubility (mole fraction),"in methanol, 298.15 K",0.000263
same,solubility (mole fraction),"in methanol, 303.15 K",0.000324
same,solubility (mole fraction),"in methanol, 308.15 K",0.000401
same,solubility (mole fraction),"in methanol, 313.15 K",0.000504
same,solubility (mole fraction),"in methanol, 318.15 K",0.000632
same,solubility (mole fraction),"in methanol, 323.15 K",0.000774
same,solubility (mole fraction),"in methanol, 328.15 K",0.000956
same,solubility (mole fraction),"in methanol, 333.15 K",0.00121
same,solubility (mole fraction),"in n-butanol, 293.15 K",3.8e-05
same,solubility (mole fraction),"in n-butanol, 298.15 K",6e-05
same,solubility (mole fraction),"in n-butanol, 303.15 K",9.5e-05
same,solubility (mole fraction),"in n-butanol, 308.15 K",0.000142
same,solubility (mole fraction),"in n-butanol, 313.15 K",0.000198
same,solubility (mole fraction),"in n-butanol, 318.15 K",0.000278
same,solubility (mole fraction),"in n-butanol, 323.15 K",0.000384
same,solubility (mole fraction),"in n-butanol, 328.15 K",0.000546
same,solubility (mole fraction),"in n-butanol, 333.15 K",0.000785
same,solubility (mole fraction),"in n-propanol, 293.15 K",4.5e-05
same,solubility (mole fraction),"in n-propanol, 298.15 K",6.1e-05
same,solubility (mole fraction),"in n-propanol, 303.15 K",8.5e-05
same,solubility (mole fraction),"in n-propanol, 308.15 K",0.00012
same,solubility (mole fraction),"in n-propanol, 313.15 K",0.000186
same,solubility (mole fraction),"in n-propanol, 318.15 K",0.000278
same,solubility (mole fraction),"in n-propanol, 323.15 K",0.000413
same,solubility (mole fraction),"in n-propanol, 328.15 K",0.000595
same,solubility (mole fraction),"in n-propanol, 333.15 K",0.00083
same,solubility (mole fraction),"in o-xylene, 293.15 K",0.00213
same,solubility (mole fraction),"in o-xylene, 298.15 K",0.00236
same,solubility (mole fraction),"in o-xylene, 303.15 K",0.00277
same,solubility (mole fraction),"in o-xylene, 308.15 K",0.00327
same,solubility (mole fraction),"in o-xylene, 313.15 K",0.00377
same,solubility (mole fraction),"in o-xylene, 318.15 K",0.00441
same,solubility (mole fraction),"in o-xylene, 323.15 K",0.00513
same,solubility (mole fraction),"in o-xylene, 328.15 K",0.00598
same,solubility (mole fraction),"in o-xylene, 333.15 K",0.00701
same,solubility (mole fraction),"in p-xylene, 293.15 K",0.00172
same,solubility (mole fraction),"in p-xylene, 298.15 K",0.00199
same,solubility (mole fraction),"in p-xylene, 303.15 K",0.00228
same,solubility (mole fraction),"in p-xylene, 308.15 K",0.00267
same,solubility (mole fraction),"in p-xylene, 313.15 K",0.00323
same,solubility (mole fraction),"in p-xylene, 318.15 K",0.00395
same,solubility (mole fraction),"in p-xylene, 323.15 K",0.00494
same,solubility (mole fraction),"in p-xylene, 328.15 K",0.00647
same,solubility (mole fraction),"in p-xylene, 333.15 K",0.0085
same,solubility (mole fraction),"in tetrachloromethane, 298.15 K",2.2e-05
same,solubility (mole fraction),"in tetrachloromethane, 303.15 K",4.7e-05
same,solubility (mole fraction),"in tetrachloromethane, 308.15 K",9.5e-05
same,solubility (mole fraction),"in tetrachloromethane, 313.15 K",0.000168
same,solubility (mole fraction),"in tetrachloromethane, 318.15 K",0.000276
same,solubility (mole fraction),"in tetrachloromethane, 323.15 K",0.000426
same,solubility (mole fraction),"in tetrachloromethane, 328.15 K",0.000614
same,solubility (mole fraction),"in tetrachloromethane, 333.15 K",0.000854
same,solubility (mole fraction),"in toluene, 293.15 K",0.00135
same,solubility (mole fraction),"in toluene, 298.15 K",0.00154
same,solubility (mole fraction),"in toluene, 303.15 K",0.00201
same,solubility (mole fraction),"in toluene, 308.15 K",0.00268
same,solubility (mole fraction),"in toluene, 313.15 K",0.00349
same,solubility (mole fraction),"in toluene, 318.15 K",0.00448
same,solubility (mole fraction),"in toluene, 323.15 K",0.00551
same,solubility (mole fraction),"in toluene, 328.15 K",0.00669
same,solubility (mole fraction),"in toluene, 333.15 K",0.00781
